# How the values were obtained:
# [1] = system: senescent CD45^− lung cells; test: Bleomycin-induced lung injury model, C12FDG assay on lung cells; assay type: in vivo, mouse
# Protocol: MATERIALS AND METHODS. Mouse husbandry. All procedures involving mice were performed according to the IACUC standards following ethics approval by the animal committee at the University of California, San Francisco. Male C57BL6/J on chow or HFD fed mice. HFD mice were fed a high-fat diet (60% kcal from fat) from 6 weeks until 22 weeks of age. All experiments on HFD mice were performed at 22-24 weeks total age (16-18 weeks on HFD). Age-matched male C57BL6/J mice on standard rodent chow diet were used as controls. For the lung injury model, 10-week-old male C57BL/6J mice were used. The animals were divided into three groups: the control group, the injured group, and the α-GalCer treated group. The animals in the control group received vehicle only (i.p.) on day 10. […] RBCs in cell pellet were lysed by resuspending in 1 mL lysis buffer for 3 min and was neutralized using 10 mL of sterile DMEM medium, centrifuged and the cell pellet resuspended in 1 ml of sterile DMEM containing DNase I. Viability of the cells was analyzed using Vi-Cell XR cell viability analyzer. C12FDG flow cytometry assay. eWAT SVF cells isolated and counted as described above were adjusted to 3×10^6 cells/ml in complete culture media and incubated with 33 μM C12FDG for 1 hr in a 37° C. water bath. […] Samples were analyzed on an Attune acoustic focusing cytometer. […] Data were analyzed with FlowJo (v. 10). […]
# [2] = Metabolic measurements in HFD-fed mice (fasting glucose, GTT, HOMA-IR); assay type: in vivo, mouse; conditions: 10 days after α-GalCer injection
# Protocol: α-GalCer activation of iNKT cells. iNKT cells were activated in vivo using α-GalCer as described in Peralbo et al., 2006. Decreased frequency and proliferative response of invariant Vα24Vβ11 natural killer T (iNKT) cells in healthy elderly. Biogerontology 7, 483-492. Briefly, HFD mice were i.p. injected with 200 μl of a 10 μg/ml α-GalCer solution (2 μg total) made up in 5.6% Sucrose, 5% Tween-20. On day 3 or 4 post-injection, mice were euthanized for various experiments, as indicated.
# Metabolic measurements. Seventeen male HFD-fed C57BL6J mice were divided into the vehicle (n=8) and the α-GalCer treated group (n=9). Age-matched male C57BL6/J mice on a standard rodent chow diet were used as controls (n=8). A glucose tolerance test was performed 10 days after α-GalCer injection. Mice were fasted overnight (14 h) before being injecting 2 g/kg glucose intraperitoneally. Blood glucose was measured at 0, 15, 30, 60, and 120 min after glucose injection using a glucometer.
# [3] = Bleomycin lung injury survival study; assay type: in vivo, mouse; conditions: bleomycin 4 U/kg intratracheal, α-GalCer or vehicle at day 5, vs vehicle-injected mice; FIG. 4E
# Source text: Bleomycin lung injury. For measurement of lung collagen, 3 U/kg Bleomycin was instilled intratracheally, with injection of α-GalCer or vehicle at day 10, followed by lung harvest for hydroxyproline assay at 20 days. For the survival study, 4 U/kg Bleomycin was instilled intratracheally, with injection of α-GalCer or vehicle at day 5.
# [4] = pre-clinical and clinical studies, Wolf et al., 2018; cited from earlier work
smiles,measurement,setting,value
"CCCCCCCCCCCCCCCCCCCCCCCCCC(=O)N[C@@H](CO[C@H]1O[C@H](CO)[C@H](O)[C@H](O)[C@H]1O)[C@H](O)[C@H](O)CCCCCCCCCCCCCC [GalCer, alpha-Galactosylceramide]",number of CD45^− C12FDG^+ lung cells,"[1]; bleomycin 3 U/kg day 0, α-GalCer 2 μg/mouse i.p. day 10, lungs harvested day 14, FIG. 4A",decreased the number of such CD45^− C12FDG^+ lung cells to levels on par with those in the lungs of uninjured control mice
same,epithelial and mesenchymal senescent cells in lung,[1]; bleomycin-injured mice treated with GalCer,both epithelial and mesenchymal senescent cells were affected
same,glucose tolerance (GTT),"[2]; 2 g/kg glucose i.p. after 14 h fast, vs vehicle",improved glucose tolerance
same,insulin sensitivity (HOMA-IR),[2]; vs vehicle,improved insulin sensitivity
same,fasting glucose,[2]; vs vehicle-treated HFD-fed mice,significantly lower fasting glucose
same,mortality (Kaplan Meier survival),[3],significantly reduced
same,tolerability / side effects,[4],generally been well-tolerated over a wide range of doses with minimal side effects
